Measured values reported in patent publication US9670227B2, “Thienopyrimidine derivatives, a process for their preparation and pharmaceutical compositions containing them” (LES LABORATOIRES SERVIER, priority 2013, dated 2017).
Like-named read-outs stand apart in the source and are kept apart here.

Target: Mcl-1 protein (UniProtKB primary accession number: Q07820) (Homo sapiens, UniProt Q07820)
Test: Inhibition of Mcl-1 by fluorescence polarisation, Method 1
Format: binding
Settings: for IC50: read-out: IC50 (M) Mcl-1 FP; for percentage fluorescence polarisation inhibition, Mcl-1 FP: partial inhibitors, @ 10 uM test compound
In short: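 Compounds were tested as 11-point serial dilutions at 5% final DMSO against 5 nM Mcl-1 with 1 nM fluorescein-labelled ligand in 10 mM HEPES, 150 mM NaCl, 0.05% Tween 20, pH 7.4. Relative binding potency was read by fluorescence polarisation.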

[1] = fluorescence polarisation, Method 1, or Method 2
[2] = fluorescence polarisation test, Method 1, or Method 2 where the value is underlined (underlining not visible)
[3] = fluorescence polarisation test, Method 2 values are underlined in the patent (underlining not visible here)

Chain of Mcl-1 protein (Q07820 whole entry): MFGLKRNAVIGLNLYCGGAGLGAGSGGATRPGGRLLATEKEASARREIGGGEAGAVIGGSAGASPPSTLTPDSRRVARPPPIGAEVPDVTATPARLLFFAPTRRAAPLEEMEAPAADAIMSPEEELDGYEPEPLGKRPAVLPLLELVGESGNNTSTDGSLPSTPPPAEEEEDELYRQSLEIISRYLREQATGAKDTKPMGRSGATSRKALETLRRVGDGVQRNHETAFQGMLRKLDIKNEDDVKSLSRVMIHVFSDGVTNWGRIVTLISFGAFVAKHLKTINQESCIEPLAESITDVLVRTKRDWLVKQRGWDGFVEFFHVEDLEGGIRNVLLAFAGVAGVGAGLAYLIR

Row | IC50 [1] [M] | Structure (SMILES) | also measured
1 | 3.2e-08 | CCc1sc2ncnc(OC(Cc3ccccc3)C(=O)O)c2c1-c1cc(N)c(O)c(Cl)c1C [Example 431, (2R)-2-{[(5Sa)-5-(5-amino-3-chloro-4-hydroxy-2-methylphenyl)-6-ethylthieno[2,3-d]pyrimidin-4-yl]oxy}-3-phenylpropanoic acid] | –
2 | 1.9e-08 | CC#Cc1sc2ncnc(OC(Cc3ccccc3OC)C(=O)O)c2c1-c1ccc(OCCN2CCN(C)CC2)c(Cl)c1C [Example 572, (2R)-2-{[(5Sa)-5-{3-chloro-2-methyl-4-[2-(4-methylpiperazin-1-yl)ethoxy]phenyl}-6-(prop-1-yn-1-yl)thieno[2,3-d]pyrimidin-4-yl]oxy}-3-(2-methoxyphenyl)propanoic acid] | –
3 | 5.1e-08 | Cc1c(-c2c(-c3ccc(F)cc3)sc3ncnc(OC(Cc4ccccc4OCC4CCCO4)C(=O)O)c23)ccc(OC2CCCN(C)C2)c1Cl (single isomer, unassigned) [Example 650, (2R)-2-{[(5Sa)-5-{3-chloro-2-methyl-4-[((3R or S)-1-methylpiperidin-3-yl)oxy]phenyl}-6-(4-fluorophenyl)thieno[2,3-d]pyrimidin-4-yl]oxy}-3-{2-[(2R)-tetrahydrofuran-2-ylmethoxy]phenyl}propanoic acid] | –
4 | 2.2e-08 | Cc1c(-c2c(-c3ccc(F)cc3)sc3ncnc(OC(Cc4ccccc4OCC4CCCO4)C(=O)O)c23)ccc(OCCN2CCN(CCCCN)CC2)c1Cl [Example 645, (2R)-2-{[(5Sa)-5-(4-{2-[4-(4-aminobutyl)piperazin-1-yl]ethoxy}-3-chloro-2-methylphenyl)-6-(4-fluorophenyl)thieno[2,3-d]pyrimidin-4-yl]oxy}-3-{2-[(2R)-tetrahydrofuran-2-ylmethoxy]phenyl}propanoic acid] | –
5 | 5.8e-08 | Cc1c(-c2c(-c3cccs3)sc3ncnc(OC(Cc4ccccc4)C(=O)O)c23)ccc(OCCN2CCN(C)CC2)c1Cl [Example 505, (2R)-2-{[(5Sa)-5-{3-chloro-2-methyl-4-[2-(4-methylpiperazin-1-yl)ethoxy]phenyl}-6-(thiophen-2-yl)thieno[2,3-d]pyrimidin-4-yl]oxy}-3-phenylpropanoic acid] | –
6 | 1.1e-08 | CC#Cc1sc2ncnc(O[C@H](Cc3ccccc3OC)C(=O)O)c2c1-c1ccc(CCCN(C)C)c(Cl)c1C (single isomer, unassigned) [Example 479] | –
7 | 1.1e-07 | CCc1sc2ncnc(O[C@H](Cc3ccccc3)C(=O)O)c2c1-c1cc2cc(CN(C)C)oc2c(Cl)c1C [Example 442, (2R)-2-[((5Sa)-5-{7-chloro-2-[(dimethylamino)methyl]-6-methyl-1-benzofuran-5-yl}-6-ethylthieno[2,3-d]pyrimidin-4-yl)oxy]-3-phenylpropanoic acid] | –
8 | – | COc1ccccc1CC(Oc1ncnc2sc(-c3ccc(F)cc3)c(-c3ccc(OC)c(Cl)c3C)c12)C(=O)O [Example 840, (2R)-2-{[(5Sa)-5-(3-chloro-4-methoxy-2-methylphenyl)-6-(4-fluorophenyl)thieno[2,3-d]pyrimidin-4-yl]oxy}-3-(2-methoxyphenyl)propanoic acid] | IC50 [2]: 1.28e-07 M
9 | – | Cc1oc(=O)oc1COC(=O)C(Cc1ccccc1OCc1ccnn1C(C)(C)C)Oc1ncnc2sc(-c3ccc(F)cc3)c(-c3ccc(OCCN(C)C)c(Cl)c3C)c12 [Example 820, (5-methyl-2-oxo-1,3-dioxol-4-yl)methyl (2R)-3-{2-[(1-tert-butyl-1H-pyrazol-5-yl)methoxy]phenyl}-2-{[(5Sa)-5-{3-chloro-4-[2-(dimethylamino)ethoxy]-2-methylphenyl}-6-(4-fluorophenyl)thieno[2,3-d]pyrimidin-4-yl]oxy}propanoate] | IC50 [2]: 1.29e-08 M
10 | – | CCOC(=O)C(Cc1ccccc1OCc1ccnc(-c2ccccc2OCCOC)n1)Oc1ncnc2sc(-c3ccc(F)cc3)c(-c3ccc(OCCN(C)C)c(Cl)c3C)c12 [Example 806, ethyl (2R)-2-{[(5Sa)-5-{3-chloro-4-[2-(dimethylamino)ethoxy]-2-methylphenyl}-6-(4-fluorophenyl)thieno[2,3-d]pyrimidin-4-yl]oxy}-3-[2-({2-[2-(2-methoxyethoxy)phenyl]pyrimidin-4-yl}methoxy)phenyl]propanoate] | IC50 [2]: 1.63e-06 M
11 | – | COc1ccccc1CC(Oc1ncnc2sc(-c3ccco3)c(-c3ccc(OCCN4CCN(CC(N)=O)CC4)c(Cl)c3C)c12)C(=O)O [Example 326, (2R)-2-{[(5Sa)-5-(4-{2-[4-(2-amino-2-oxoethyl)piperazin-1-yl]ethoxy}-3-chloro-2-methylphenyl)-6-(furan-2-yl)thieno[2,3-d]pyrimidin-4-yl]oxy}-3-(2-methoxyphenyl)propanoic acid] | IC50 [3]: 7.9e-09 M
12 | – | CCOC(=O)[C@@H](Cc1ccccc1OC)Oc1ncnc2sc(-c3ccsc3)c(-c3ccc(OCCN4CCN(C)CC4)c(Cl)c3C)c12 [Example 633, ethyl (2R)-2-{[(5Sa)-5-{3-chloro-2-methyl-4-[2-(4-methylpiperazin-1-yl)ethoxy]phenyl}-6-(thiophen-3-yl)thieno[2,3-d]pyrimidin-4-yl]oxy}-3-(2-methoxyphenyl)propanoate] | percentage fluorescence polarisation inhibition, Mcl-1 FP: 40.2 % @ 10 uM
13 | 2.6e-08 | CCc1sc2ncnc(OC(Cc3ccccc3)C(=O)O)c2c1-c1cccc(Cl)c1C [Example 450, (2R)-2-{[(5Sa)-5-(3-chloro-2-methylphenyl)-6-ethylthieno[2,3-d]pyrimidin-4-yl]oxy}-3-phenylpropanoic acid] | –
14 | 7.6e-08 | C=Cc1sc2ncnc(OC(Cc3ccccc3)C(=O)O)c2c1-c1cccc(Cl)c1C [Example 721, (2R)-2-{[(5Sa)-5-(3-chloro-2-methylphenyl)-6-ethenylthieno[2,3-d]pyrimidin-4-yl]oxy}-3-phenylpropanoic acid] | –
15 | – | COc1ccccc1CC(Oc1ncnc2sc(-c3ccco3)c(-c3ccc(OC4CCCCN(C)C4)c(Cl)c3C)c12)C(=O)O (single isomer, unassigned) [Example 300, (2R)-2-{[(5Sa)-5-{3-chloro-2-methyl-4-[(3R or S)-(1-methylazepan-3-yl)oxy]phenyl}-6-(furan-2-yl)thieno[2,3-d]pyrimidin-4-yl]oxy}-3-(2-methoxyphenyl)propanoic acid] | IC50 [3]: 3.7e-08 M
16 | – | CCOC(=O)[C@@H](Cc1ccccc1OCc1cnccn1)Oc1ncnc2sc(-c3ccc(F)cc3)c(-c3ccc(OCCN4CCOCC4)c(Cl)c3C)c12 [Example 632, ethyl (2R)-2-{[(5Sa)-5-{3-chloro-2-methyl-4-[2-(morpholin-4-yl)ethoxy]phenyl}-6-(4-fluorophenyl)thieno[2,3-d]pyrimidin-4-yl]oxy}-3-[2-(pyrazin-2-ylmethoxy)phenyl]propanoate] | percentage fluorescence polarisation inhibition, Mcl-1 FP: 41.8% @ 10 uM
17 | 2.3e-08 | CC#Cc1sc2ncnc(OC(Cc3ccccc3)C(=O)O)c2c1-c1ccc(OCCN2CCN(C)CC2)c(Cl)c1C [Example 519, (2R)-2-{[(5Sa)-5-{3-chloro-2-methyl-4-[2-(4-methylpiperazin-1-yl)ethoxy]phenyl}-6-(prop-1-yn-1-yl)thieno[2,3-d]pyrimidin-4-yl]oxy}-3-phenylpropanoic acid] | –
18 | 2.8e-08 | COc1ccccc1CC(Oc1ncnc2sc(-c3cccc(F)c3)c(-c3ccc(OCCN4CCN(C)CC4)c(Cl)c3C)c12)C(=O)O [Example 551, (2R)-2-{[(5Sa)-5-{3-chloro-2-methyl-4-[2-(4-methylpiperazin-1-yl)ethoxy]phenyl}-6-(3-fluorophenyl)thieno[2,3-d]pyrimidin-4-yl]oxy}-3-(2-methoxyphenyl)propanoic acid] | –
19 | – | COc1ccccc1CC(Oc1ncnc2sc(-c3ccco3)c(-c3ccc(OCCN4CCN(C(C)=O)CC4)c(Cl)c3C)c12)C(=O)O [Example 323, (2R)-2-{[(5Sa)-5-{4-[2-(4-acetylpiperazin-1-yl)ethoxy]-3-chloro-2-methylphenyl}-6-(furan-2-yl)thieno[2,3-d]pyrimidin-4-yl]oxy}-3-(2-methoxyphenyl)propanoic acid] | IC50 [3]: 8.8e-09 M
20 | 1.4e-08 | CCc1sc2ncnc(OC(Cc3ccccc3)C(=O)O)c2c1-c1ccc(OCCCc2ccncc2)c(Cl)c1C [Example 399, (2R)-2-[((5Sa)-5-{3-chloro-2-methyl-4-[3-(pyridin-4-yl)propoxy]phenyl}-6-ethylthieno[2,3-d]pyrimidin-4-yl)oxy]-3-phenylpropanoic acid] | –
21 | 4.3e-08 | COc1ccccc1CC(Oc1ncnc2sc(-c3ccc(F)c(F)c3F)c(-c3ccc(OCCN4CCN(C)CC4)c(Cl)c3C)c12)C(=O)O [Example 537, (2R)-2-{[(5Sa)-5-{3-chloro-2-methyl-4-[2-(4-methylpiperazin-1-yl)ethoxy]phenyl}-6-(2,3,4-trifluorophenyl)thieno[2,3-d]pyrimidin-4-yl]oxy}-3-(2-methoxyphenyl)propanoic acid] | –
22 | – | Cc1c(-c2c(-c3ccco3)sc3ncnc(OC(Cc4ccccc4OCc4cncn4C)C(=O)O)c23)ccc(OCCN2CCN(C)CC2)c1Cl [Example 276, (2R)-2-{[(5Sa)-5-{3-chloro-2-methyl-4-[2-(4-methylpiperazin-1-yl)ethoxy]phenyl}-6-(furan-2-yl)thieno[2,3-d]pyrimidin-4-yl]oxy}-3-{2-[(1-methyl-1H-imidazol-5-yl)methoxy]phenyl}propanoic acid] | IC50 [3]: 6.2e-09 M
23 | – | COCCOC(=O)[C@@H](Cc1ccccc1OCc1ccnn1C(C)(C)C)Oc1ncnc2sc(-c3cccc(F)c3F)c(-c3ccc(OCCN(C)C)c(Cl)c3C)c12 [Example 805, 2-methoxyethyl (2R)-3-{2-[(1-tert-butyl-1H-pyrazol-5-yl)methoxy]phenyl}-2-{[(5Sa)-5-{3-chloro-4-[2-(dimethylamino)ethoxy]-2-methylphenyl}-6-(2,3-difluorophenyl)thieno[2,3-d]pyrimidin-4-yl]oxy}propanoate] | percentage fluorescence polarisation inhibition (Mcl-1 FP), partial inhibitors (test compound at 10 uM, Method 1, or Method 2 where the value is underlined (underlining not visible)): 53.5% @ 10 uM
24 | 9.05e-08 | COc1ccccc1-c1nccc(COc2ccccc2CC(Oc2ncnc3sc(-c4ccc(OCCN5CCOCC5)cc4)c(-c4ccc(OCCN5CCN(C)CC5)c(Cl)c4C)c23)C(=O)O)n1 (single isomer, unassigned) [Example 763] | –
